Values quoted from earlier work as cited in article PMC5603512, “Discovery, Semisynthesis, Antiparasitic and Cytotoxic Evaluation of 14-Membered Resorcylic Acid Lactones and Their Derivatives” (Scientific Reports, 2017).
Values after ≈ are worked out from the molar mass of the structure shown.

Test system: P. falciparum lines K1
Settings: cited from earlier work

Row | Compound | IC50 against P. falciparum line K1 [µg/mL]
1 | COc1cc(O)c2c(c1)[C@H]1O[C@@H]1C[C@H](O)[C@H](O)C(=O)/C=C\C[C@H](C)OC2=O [Hypothemycin] | 2.2 (≈ 5.81 µM)
2 | C[C@H]1C/C=C/[C@@H](O)[C@@H](O)CC/C=C/c2cc(O)cc(O)c2C(=O)O1 [aigialomycin D] | 6.6 (≈ 19.7 µM)
